Data taken from PMC6470589, “Contribution of Molecular Structure to Self-Assembling and Biological Properties of Bifunctional Lipid-Like 4-(N-Alkylpyridinium)-1,4-Dihydropyridines” (Pharmaceutics, 2019).
Read-outs that look alike come from different tables or passages of the source.

Columns and labels:
[1] = Basal cytotoxicity test (neutral red uptake) with estimation of LD50 from IC50; format: cell-based, mouse; conditions: mouse, NIH 3T3 fibroblast cells
Description: The neutral red uptake (NRU) assay was performed according to the standard protocol of Stokes modified by NICEATM-ECVAM validation study. The NRU cytotoxicity assay procedure was based on the ability of viable cells to incorporate and bind neutral red, which is a supravital dye.
NIH 3T3 (Mouse Swiss Albino embryo fibroblast) cells (9000 cells/well) were placed into 96-well plates for 24 h in DMEM medium containing 5% fetal bovine serum (FBS). Then, they were exposed to the test compound over a range of seven concentrations (1000 μg/mL, 316 μg/mL, 100 μg/mL, 31 μg/mL, 10 μg/mL, 3.0 μg/mL, and 1.0 μg/mL) for 24 h. Untreated cells were used as a control. After 24 h, the medium was removed from all plates. Then, 250 μL of neutral red (NR) solution was added (0.05 mg/mL NR in DMEM 24 h pre-incubated at 37 °C and then filtered before use through a 0.22-µm syringe filter). Plates were incubated for 3 h, and then, cells were washed three times with phosphate buffered saline (PBS). The dye within viable cells was released by extraction with a mixture of acetic acid, ethanol, and water (1:50:49). The absorbance of neutral red was measured using a spectrophotometer multiplate reader Infinite M1000 (Tecan Austria GmbH, Salzburg, Austria) at 540 nm. The optical density (OD) was calculated using the formula: OD (treated cells) × 100/OD (control cells). The IC50 values were calculated using the program Graph Pad Prism® 3.0.
Data from the in vitro tests were used for estimating the starting dose for acute oral systemic toxicity tests in rodent. The in vivo starting dose is an estimated LD50 value that is calculated by inserting the in vitro IC50 value into a regression formula: log LD50 (mM/kg) = 0.439 log IC50 (mM) + 0.621 [29]. The value is recalculated to mg/kg, and compounds are evaluated in accordance with four toxicity categories: category 1: LD50 ≤ 5 mg/kg (highly toxic); category 2: 5 < LD50 ≤ 50 mg/kg (moderately toxic); category 3: 50 < LD50 ≤ 300 mg/kg (slightly toxic); category 4: 300 < LD50 ≤ 2000 mg/kg (practically non-toxic). Using an alternative in vitro method enables comparing the possible toxicity of new compounds and selecting compounds for further study, which will vastly reduce the number of animal experiments.

[2] = system: Bacillus subtilis subsp. spizizenii; assay: Toxicity screen, serial dilution-spot test; format: cell-based; conditions: gram positive; 24 h exposure in DI water, 28 °C; 0.0001 = no colonies at 0.001 mM;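 also: last dilution that did not fully inhibit growth with colonies still present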
Description: (§1) An estimation of the toxicity of 4-(N-alkylpyridinium)-1,4-DHP derivatives 3, 6, 7, and 9–11 was performed using six prokaryotic (bacteria) and one eukaryotic (yeast) microorganism species according to the procedure elaborated by Suppi et al.. The microorganisms used in the study and their origin were: Bacillus subtilis subsp. spizizenii (ATCC® 6633™*, Microbiologics®, St Cloud, MN, USA), Escherichia coli (ATCC® 8739, Microbiologics®), Klebsiella pneumoniae (Latvian Microorganisms strain collection, LMKK, strain number 535, Riga, Latvia), Micrococcus luteus (LMKK, No. 25), Pseudomonas aeruginosa (NCTC 12924, Biosciences Ltd., Dublin, Ireland), Proteus mirabilis (LMKK, No 590), and Saccharomyces cerevisiae, CEN.PK2 strain [32].
(§2) Bacteria and yeast cultures were cultivated until their exponential growth phase (optical density max 1); then, 100 µL of cell suspension was taken, washed in deionised (DI) water, and added to serially diluted samples of corresponding 4-(N-alkylpyridinium)-1,4-DHPs in DI water. All 1,4-DHPs were tested in five serially diluted concentrations (10 mM, 1 mM, 0.1 mM, 0.01 mM, and 0.001 mM). Test organisms were exposed to 1,4-DHP derivatives in DI water on 96-well microplates (Corning, Corning, NY, USA) at 28 °C for 24 h without shaking in the dark. Then, a 5 µL sample was taken from each well and spotted on yeast extract, bactopeptone, dextrose broth (YPD) (yeast extract 1%, bactopeptone 2%, glucose 2% and agar 2%) plates to test the growth of yeasts and lysogeny broth (LB) (yeast extract 0.5%, bactopeptone 1%, NaCl 0.5% and agar 2%) to test the growth for bacteria. Plates were left in 30 °C for 24 h, and assessed for microbial growth.
(§3) If there were no colonies after incubation with 1,4-DHPs in the last concentration of (0.001 mM), then their boundary concentration was set to 0.0001 mM or 0.1 µM.

Escherichia coli = assay: Toxicity screen, serial dilution-spot test; format: cell-based; conditions: gram negative; 24 h exposure in DI water, 28 °C; 0.0001 = no colonies at 0.001 mM;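 also: last dilution that did not fully inhibit growth with colonies still present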
Description: as §1, §2, §3

Klebsiella pneumoniae = assay: Toxicity screen, serial dilution-spot test; format: cell-based; conditions: gram negative; 24 h exposure in DI water, 28 °C; 0.0001 = no colonies at 0.001 mM;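 also: last dilution that did not fully inhibit growth with colonies still present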
Description: as §1, §2, §3

Micrococcus luteus = assay: Toxicity screen, serial dilution-spot test; format: cell-based; conditions: gram positive; 24 h exposure in DI water, 28 °C; 0.0001 = no colonies at 0.001 mM;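 also: last dilution that did not fully inhibit growth with colonies still present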
Description: as §1, §2, §3

Proteus mirabilis = assay: Toxicity screen, serial dilution-spot test; format: cell-based; conditions: gram negative; 24 h exposure in DI water, 28 °C; 0.0001 = no colonies at 0.001 mM;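 also: last dilution that did not fully inhibit growth with colonies still present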
Description: as §1, §2, §3

Pseudomonas aeruginosa = assay: Toxicity screen, serial dilution-spot test; format: cell-based; conditions: gram negative; 24 h exposure in DI water, 28 °C; 0.0001 = no colonies at 0.001 mM;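 also: last dilution that did not fully inhibit growth with colonies still present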
Description: as §1, §2, §3

[3] = system: Saccharomyces cerevisiae, CEN.PK2 strain; assay: Toxicity screen, serial dilution-spot test; format: cell-based; conditions: yeast; 24 h exposure in DI water, 28 °C; 0.0001 = no colonies at 0.001 mM;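 also: last dilution that did not fully inhibit growth with colonies still present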
Description: as §1, §2, §3

[4] = system: six prokaryotic (bacteria) and one eukaryotic (yeast) microorganism species; assay: Toxicity screen, whole panel of microorganisms; format: cell-based; conditions: concentrations tested 10 to 0.001 mM
Description: as §1, §2, §3

[5] = MTT cytotoxicity assay on HT-1080 tumor cells, 72 h; format: cell-based, human; conditions: human, HT-1080 fibrosarcoma cells
Description: Tumor cell lines HT-1080 (human connective tissue fibrosarcoma) and MH-22A (mouse hepatocarcinoma) were used. All of the cells were obtained from the American Type Culture Collection ((ATCC,) Rockville, MD, USA). HT-1080 and MH-22A cells (4 × 10^4 cell/mL) were seeded in 96-well plates in Dulbecco’s modified Eagle’s medium (DMEM) containing 10% fetal bovine serum and cultivated for 72 h at 37 °C, 5% CO2 by exposure to different compounds concentrations (100 μg/mL, 25 μg/mL, 6.25 μg/mL, and 1.56 μg/mL). Cell viability was measured using 3-(4,5-dimethylthiazol-2-yl)-2,5-diphenyl-tetrazolium bromide (MTT) assay. In brief, after incubating with compounds, the culture medium was removed and fresh medium with 0.2 mg/mL MTT was added in each well of the plate. After incubation (3 h, 37 °C, 5% CO2), the medium with MTT was removed, and 200 μL of DMSO was added at once to each sample. The samples were tested at 540 nm on a Tecan multiplate reader Infinite1000 (Tecan Austria GmbH, Salzburg, Austria). The IC50 was calculated using the program Graph Pad Prism® 3.0.

[6] = category by estimated LD50 (mg/kg), read-out: Toxicity category from estimated LD50
[7] = MTT, 72 h, ne = no effect in the tested concentration (up to 100 μg/mL), read-out: Cytotoxicity IC50, HT-1080

| Structure (SMILES) | LD50 at 24 h [1, 6] [mg/kg] | Boundary concentration, B. subtilis [2] [mM] | Boundary concentration, E. coli (Escherichia coli) [mM] | Boundary concentration, K. pneumoniae (Klebsiella pneumoniae) [mM] | Boundary concentration, M. luteus (Micrococcus luteus) [mM] | Boundary concentration, P. mirabilis (Proteus mirabilis) [mM] | Boundary concentration, P. aeruginosa (Pseudomonas aeruginosa) [mM] | Boundary concentration, S. cerevisiae [3] [mM] | Effect on survival of microorganisms [4] | IC50 at 72 h [5, 7] [µM] | IC50 at 72 h ([5]; as printed in the supplementary toxicity table, read-out: Cytotoxicity, IC50, HT-1080 (supplementary table, for comparison)) [µM] | LD50 at 24 h ([1]; calculated from NIH 3T3 NRU IC50, recalculated to mg/kg, read-out: Basal Cytotoxicity Estimated LD50) [mg/kg] |
| --- | --- | --- | --- | --- | --- | --- | --- | --- | --- | --- | --- | --- |
| C#CCN1C(C)=C(C(=O)OCC)C(c2ccc[n+](CCCCCCCCCCCC)c2)C(C(=O)OCC)=C1C [Compound 6] | 50 to 300 | 0.0001 | 0.001 | 0.1 | 0.0001 | 1 | 0.01 | 0.001 | toxic at various degrees |  |  |  |
| CCCCCCCCCCCC[n+]1cccc(C2C(C(=O)OCC)=C(C)NC(C)=C2C(=O)OCC)c1 [Compound 3] |  | 0.01 | 0.01 | 0.1 | 0.001 | 0.001 | 0.01 | 0.001 | toxic at various degrees | 37 ± 2 |  |  |
| C#CCOC(=O)C1=C(C)NC(C)=C(C(=O)OCC#C)C1c1ccc[n+](CC)c1 [Compound 7] |  | 0.1 | 1 | 10 | 0.001 | 0.1 | 0.01 | 1 |  |  | 1000 | > 2700 |
| C#CCOC(=O)C1=C(C)NC(C)=C(C(=O)OCC#C)C1c1ccc[n+](CCCCCCCCCCCC)c1 [Compound 9] | 50 to 300 | 0.01 | 0.0001 | 0.1 | 0.0001 | 0.01 | 0.01 | 0.0001 | toxic at various degrees | 1 to 4 |  |  |
